Columns and labels:
[1] = cited from earlier work
[2] = High humidity storage experiments; assay type: physicochemical
[3] = Moisture sorption/desorption (dynamic vapour sorption, DVS); assay type: physicochemical; settings: for Masschange (DVS): from 0%-90% RH; for Hygroscopicity: increase in mass from 0%-RH to 90%-RH
Procedure: Moisture sorption/desorption data was collected on a DVS Advantage, a DVS Adventure, or a DVS Intrinsic (SMS Surface Measurements Systems) moisture balance system. The sorption/desorption isotherms were measured stepwise in a range from 0%-RH to 90%-RH at typically 25° C. A weight change of typically <0.001%/min was chosen as criterion to switch to the next level of relative humidity (with a maximum equilibration time of typically 24 hours, if the weight change criterion was not met). The data were corrected for the initial moisture content of the samples by taking the weight after drying of the samples at 0%-RH as zero point.
The hygroscopicity of a given substance was characterized (by close analogy with the European Pharmacopoeia) by the increase in mass when the relative humidity was raised from 0%-RH to 90%-RH: […]

SMILES	brain permeability [1]	Solid form stability in high humidity storage [2]	Masschange (DVS) [3]	Hygroscopicity [3]	Solid form change during the DVS cycle ([3]; sorption/desorption cycle 0%-90% RH)
CC(C)(C)c1nc(-c2cccc(NS(=O)(=O)c3c(F)cccc3F)c2F)c(-c2ccnc(N)n2)s1 [Dabrafenib]	very poor	–	–	–	–
COC(=O)N[C@@H](C)CNc1nccc(-c2cn(C(C)C)nc2-c2cc(Cl)cc(NS(C)(=O)=O)c2F)n1 [Encorafenib]	very poor	–	–	–	–
CCCS(=O)(=O)Nc1ccc(F)c(C(=O)c2c[nH]c3ncc(-c4ccc(Cl)cc4)cc23)c1F [Vemurafenib]	very poor	–	–	–	–
Cn1cnc2ccc(Oc3c(F)ccc(NS(=O)(=O)N4CC[C@@H](F)C4)c3C#N)cc2c1=O [amorphous form, (3R)-N-[2-cyano-4-fluoro-3-(3-methyl-4-oxo-quinazolin-6-yl)oxy-phenyl]-3-fluoro-pyrrolidine-1-sulfonamide]	–	Recrystallization to Form A	~3.8%	hygroscopic (weight increase 2.0% ≤ Dm < 15.0%)	–
Cn1cnc2ccc(Oc3c(F)ccc(NS(=O)(=O)N4CC[C@@H](F)C4)c3C#N)cc2c1=O [polymorphic form A, (3R)-N-[2-cyano-4-fluoro-3-(3-methyl-4-oxo-quinazolin-6-yl)oxy-phenyl]-3-fluoro-pyrrolidine-1-sulfonamide]	–	–	< 0.2%	not hygroscopic	no solid form change

Source: patent US20240199585A1, “SOLID FORMS OF (3R)-N-[2-CYANO-4-FLUORO-3-(3-METHYL-4-OXO-QUINAZOLIN-6-YL)OXY-PHENYL]-3-FLUORO-PYRROLIDINE-1-SULFONAMIDE” (Hoffmann-La Roche Inc., priority 2021, published 2024)
